{
  "source": "patent US20180271925A1",
  "about": "“Method For Improving Gingivitis And Periodontitis By Antibacterial, Antioxidant And Anti-Inflammatory Effects And Inhibition Of Alveolar Bone Loss Of Complex Extracts Of Moringa Leaf And Eucommia Bark” (HLSCIENCE CO., LTD., priority 2017, published 2018)",
  "assay_type_in_all_cases": "in vivo, rat",
  "key": {"[1]": {"system": "osteoclasts in alveolar bone", "assay": "Number of osteoclasts in alveolar bone of EPD rats (TRAP staining)", "conditions": "dosage of 200 mg/kg oral once a day for 10 days, FIG. 7", "experimental": "The gingivitis- and periodontitis-improving effect was evaluated using rats with ligature-induced experimental periodontitis (EPD). 9 complex compositions of the moringa leaf extract (MF) and the eucommia bark extract (EC) (MF:EC=1:1, 1:2, 1:4, 1:6, 1:8, 2:1, 4:1, 6:1 and 8:1; mg:mg) dissolved in sterilized distilled water were orally administered at a dosage of 5 mL/kg (200 mg/kg) once a day for 10 days and body weight, alveolar bone, number of viable aerobic bacteria in the oral tissue, interleukin (IL)-1β and tumor necrosis factor (TNF)-α contents in the gingiva, lipid peroxidation (malondialdehyde (MDA) content) and change in the activity of inducible nitric oxide synthase (iNOS) and myeloperoxidase (MPO) were observed together with histopathological changes. […] A group to which 5 mg/kg indomethacin (IND), which is a nonsteroidal anti-inflammatory drug (NSAID), was orally administered was used as a control group. […]\nThe number of osteoclasts was determined by staining with TRAP and counting the number of TRAP-positive multinucleated cells. […] The number of TRAP-positive multinucleated osteoclasts (having 3 or more nuclei) formed on the surface of the alveolar bone was counted using an optical microscope."}, "[2]": {"system": "interleukin (IL)-1β in the gingival tissue", "assay": "IL-1β content in gingival tissue of EPD rats, 14 natural substance extracts", "conditions": "extract 200 mg/kg (IND 5 mg/kg) oral once a day for 10 days, FIG. 1", "experimental": "The gingivitis- and periodontitis-improving effect was evaluated using rats with ligature-induced experimental periodontitis (EPD). 24 hours after the ligature of the cervical portion, each extract dissolved in sterilized distilled water was orally administered at a dosage of 5 mL/kg (200 mg/kg) once a day for 10 days and the change in the amount of interleukin (IL)-1β in the gingival tissue and the alveolar bone volume was observed along with histopathological changes. A group to which 5 mg/kg indomethacin (IND), which is a nonsteroidal anti-inflammatory drug (NSAID), was orally administered was used as a control group. […]\nAfter EPD for 11 days, the gingival tissue was homogenized and subjected to measurement with the IL-1β rat ELISA kit (Abcam, Cambridge, UK). […] After adding 50 μL of a stop solution to each well, absorbance was measured with a microplate reader (Tecan, Mannedofr, Switzerland) at a wavelength of 450 nm."}, "[3]": {"system": "rats with ligature-induced experimental periodontitis (EPD)", "assay": "Alveolar bone volume in EPD rats, 14 natural substance extracts", "conditions": "extract 200 mg/kg (IND 5 mg/kg) oral once a day for 10 days, FIG. 2", "experimental": "The gingivitis- and periodontitis-improving effect was evaluated using rats with ligature-induced experimental periodontitis (EPD). 24 hours after the ligature of the cervical portion, each extract dissolved in sterilized distilled water was orally administered at a dosage of 5 mL/kg (200 mg/kg) once a day for 10 days and the change in the amount of interleukin (IL)-1β in the gingival tissue and the alveolar bone volume was observed along with histopathological changes. A group to which 5 mg/kg indomethacin (IND), which is a nonsteroidal anti-inflammatory drug (NSAID), was orally administered was used as a control group.\nEach of the concentrated pomegranate powder and the 13 extracts containing moringa leaf (balloon flower root, gardeniae fructus, scutellariae radix, moringa, lotus leaf, Chinese mulberry leaf, ginger, peony root, achyranthis radix, eucommia bark, red clover, dandelion and dandelion root) was dissolved in sterilized distilled water to a concentration of 40 mg/mL and orally administered at a dosage of 5 mL/kg (200 mg/kg) from 24 hours after the ligature of the cervical portion once a day for 10 days. […]\nAlveolar bone loss was measured according to the method of Crawford et al. [1987]. […] The area between the end of the gingiva and the end of the incisor between the two teeth subjected to EPD was expressed as mm/rat."}},
  "data": [
    {"compound": "COc1ccc2c(c1)c(CC(=O)O)c(C)n2C(=O)c1ccc(Cl)cc1", "note": "[IND, indomethacin]", "values": [
      {"measurement": "change in the number of osteoclasts as compared to the EPD control group", "setting": "[1]", "value": "−50.19", "unit": "%"},
      {"measurement": "change in IL-1β content in the gingival tissue as compared to the EPD control group", "setting": "[2]", "value": "significantly decrease (p<0.01)"},
      {"measurement": "change in alveolar bone volume as compared to the EPD control group", "setting": "[3]", "value": "significantly increase (p<0.01 or p<0.05)"}
    ]}
  ]
}
